Test results: patent US5164388A, “Heterocyclic peptide renin inhibitors” (Abbott Laboratories, priority 1991, dated 1992)

Biological target: T1, human renal renin (Homo sapiens, UniProt P00797)
T1 construct: human renal renin, free from acid proteolytic activity; from tissue
T1 sequence (P00797 67-406): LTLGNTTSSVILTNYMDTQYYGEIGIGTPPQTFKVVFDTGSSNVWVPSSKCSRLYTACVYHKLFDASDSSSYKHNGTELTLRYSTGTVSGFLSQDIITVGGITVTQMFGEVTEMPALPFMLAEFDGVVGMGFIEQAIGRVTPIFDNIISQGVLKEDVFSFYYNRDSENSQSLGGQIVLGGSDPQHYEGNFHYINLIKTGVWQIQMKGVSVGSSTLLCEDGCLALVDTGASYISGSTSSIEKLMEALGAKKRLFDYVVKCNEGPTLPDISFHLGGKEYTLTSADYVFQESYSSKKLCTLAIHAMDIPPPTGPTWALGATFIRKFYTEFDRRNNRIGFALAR
Assay: Inhibition of human renal renin in vitro (angiotensin I formed, radioimmunoassay)
Assay type: biochemical
Conditions: human angiotensinogen substrate, 37 degrees C., pH 6.0
Experimental: The novel compounds of the present invention are also useful for treating congestive heart failure. […] At the end of the incubation, the amount of angiotensin I formed is measured by radioimmunoassay and the molar concentration required to cause 50% inhibition, expressed as the IC50, is calculated.

Row | SMILES | IC50 [nM]
1 | CCCCNC(=O)[C@H](C[C@H](O)[C@H](CC1CCCCC1)NC(=O)C(Cc1cscn1)N1CCN(C(=O)N2CCOCC2)[C@H](Cc2ccccc2)C1=O)C(C)C (stereo partly drawn) [Example 129, 3-(3-Thiazolyl)-2-(3R-benzyl-4-N-morpholin-1-yl-carbonyl-2-keto-piperazin-1-yl)-propionic acid Amide of Butyl 5(S)-amino-6-cyclohexyl-4(S)-hydroxy-2(R)-isopropylhexan-amide] | 1.3
2 | CCCCNC(=O)[C@H](C[C@H](O)[C@H](CC1CCCCC1)NC(=O)C(Cc1cscn1)N1CCN(S(=O)(=O)c2ccc(C)cc2)[C@H](Cc2ccccc2)C1=O)C(C)C (stereo partly drawn) [Example 130, 3-(4-Thiazolyl)-2-(3R-benzyl-4-N-p-toluene-sulfonyl-2-keto-piperazin-1-yl)-propionic acid Amide of Butyl 5(S)-amino-6-cyclohexyl-4(S)-hydroxy-2(R)-isopropylhexan-amide] | 0.73
3 | Cc1ccc(S(=O)(=O)N2CCN(C(Cc3cscn3)C(=O)N[C@@H](CC3CCCCC3)[C@@H](O)[C@@H](O)CC(C)C)C(=O)[C@H]2Cc2ccccc2)cc1 (stereo partly drawn) [Example 131, 3-(3-Thiazolyl)-2-(3R-benzyl-4-N-p-toluene-sulfonyl-2-keto-piperazin-1-yl)-propionic acid Amide of 2(S)-amino-1-cyclohexyl-3(R),4(S)-dihydroxyl-6-methylheptane] | 3
4 | CCCC[C@@H](C(=O)N[C@@H](CC1CCCCC1)[C@@H](O)[C@@H](O)CC(C)C)N1CCCN(C(=O)OC(C)(C)C)[C@H](Cc2ccccc2)C1=O [Example 132, 2(S)-(3R-Benzyl-4N-tert-butyloxycarbonyl-2-keto-homopiperazin-1-yl)-hexanoic acid Amide of 2(S)-Amino-1-cyclohexyl-3(R),4(S)-dihydroxy-6-methylheptane] | 340
5 | Cc1ccc(S(=O)(=O)N2CCN(C(Cc3cscn3)C(=O)N[C@@H](CC3CCCCC3)[C@@H](O)[C@@H]3C[C@H](C)CO3)C(=O)[C@H]2Cc2ccccc2)cc1 (stereo partly drawn) [Example 140, 3-(S-Thiazolyl)-2-(3R-benzyl-4-N-p-toluene-sulfonyl-2-keto-piperazin-1-yl)-propionic acid Amide of 2(S)-(2(S)-Amino-3-cyclohexyl-1(R)-hydroxy)propyl-4(S)-methyltetrahydrofuran] | 3.4
6 | CCCCNC(=O)[C@H](C[C@H](O)[C@H](CC1CCCCC1)NC(=O)C(Cc1cscn1)N1CCN(S(=O)(=O)N2CCN(C)CC2)[C@H](Cc2ccccc2)C1=O)C(C)C (stereo partly shown) [Example 141] | 1.5
7 | CCN1CC(C(O)C(CC2CCCCC2)NC(=O)C(Cc2nccn2C(=O)OC(C)(C)C)N2CCN(S(=O)(=O)N3CCN(C)CC3)C(Cc3ccccc3)C2=O)OC1=O [Example 142, 3-(3N-tert-butyloxycarbonyl-2-imidazolyl)-2-(3R-benzyl-4-N-(N-methylpiperazyl)-sulfonyl-2-keto-piperazin-1-yl)-propoionic acid Amide of (2'S,1'R,5S)-3-Ethyl-5-(1'-hydroxy-2'-amino-3'-cyclohexylpropyl)oxazolidin-2-one] | 5
8 | CCN1C[C@@H]([C@H](O)[C@H](CC2CCCCC2)NC(=O)C(Cc2ncc[nH]2)N2CCN(S(=O)(=O)N3CCN(C)CC3)[C@H](Cc3ccccc3)C2=O)OC1=O (stereo partly drawn) [Example 143, 3-(2-imidazolyl)-2-(3R-benzyl-4-N-(N-methylpiperazyl)-sulfonyl-2-keto-piperazin-1-yl)-propionic acid Amide of (2'S,1'R,5S)-3-Ethyl-5-(1'-hydroxy-2'-amino-3'-cyclohexylpropyl)oxazolidin-2-one] | 1.7
9 | CC(C)C[C@H](O)[C@H](O)[C@H](CC1CCCCC1)NC(=O)C(Cc1nccn1C(=O)OC(C)(C)C)N1CCN(S(=O)(=O)N2CCN(C)CC2)[C@H](Cc2ccccc2)C1=O (stereo partly drawn) [Example 144, 3-(3N-tert-butyloxycarbonyl-2-imidazolyl)-2-(3R-benzyl-4N-(N-methylpiperazyl)-sulfonyl-2-keto-piperazin-1-yl)-propionic acid Amide of 2(S)-Amino-1-cyclohexyl-3(R),4(S)-dihydroxy-6-methylheptane] | 6.6
10 | CC(C)C[C@H](O)[C@H](O)[C@H](CC1CCCCC1)NC(=O)C(Cc1ncc[nH]1)N1CCN(S(=O)(=O)N2CCN(C)CC2)[C@H](Cc2ccccc2)C1=O (stereo partly shown) [Example 145] | 1.7
11 | C[C@@H]1CO[C@H]([C@H](O)[C@H](CC2CCCCC2)NC(=O)C(Cc2nccn2C(=O)OC(C)(C)C)N2CCN(S(=O)(=O)N3CCN(C)CC3)[C@H](Cc3ccccc3)C2=O)C1 (stereo partly drawn) [Example 146, 3-(3N-tert-butyloxycarbonyl-2-imidazolyl)-2-(3R-benzyl-4N-(N-methylpiperazyl)-sulfonyl-2-keto-piperazin-1-yl)-propionic acid Amide of 2(s)-(2(s)-Amino-3-cyclohexyl-1(R) hydroxy)propyl-4(S)-methyltetrahydrofuran] | 1.6
12 | CC(C)C[C@H](O)[C@H](O)[C@H](CC1CCCCC1)NC(=O)[C@H](Cc1cscn1)N1CCC[C@@](Cc2ccccc2)(NS(=O)(=O)N2CCN(C)CC2)C1=O [Example 151, (2S)-(3S)-((N-methylpiperazinsulfonyl)-amino-3-phenylmethyl-2-oxo-1-piperidinyl)-3-(4-thiazolyl) propionic acid amide of (2S.3R,4S)-2-amino-1-cyclohexyl-3,4-dihydroxy-6-methylheptane] | 0.32
13 | Cc1ccc(S(=O)(=O)N[C@]2(Cc3ccccc3)CCCN([C@@H](Cc3c[nH]cn3)C(=O)N[C@@H](CC3CCCCC3)[C@@H](O)[C@@H](O)CC(C)C)C2=O)cc1 [Example 156] | 1.4
